From patent US20030134842A1, “METHODS FOR THE TREATMENT OR PREVENTION OF INFLAMMATORY DISEASES CHARACTERIZED BY ABNORMAL CELL PROLIFERATION” (priority 1997, published 2003)
Where two headings read alike, the source gives them in different places.

Tests used:
Assay type in all cases: cell-based
[1] = molecular target: T1, Ca2+-activated potassium channel (Gardos channel) of erythrocytes (Homo sapiens, UniProt O15554); assay: Gardos channel assay
T1 construct: endogenous in cells; host or cells: erythrocytes

[2] = test system: NIH 3T3 mouse fibroblast cells; assay: Mitogenic assay (mitogen-induced cell proliferation); conditions: for IC50: mitogen-induced cell proliferation
[3] = test system: MMRU; assay: SRB antiproliferative assay MMRU; conditions: Homo sapiens
Excerpt: (§1) The cells were passaged using Trypsin (Gibco).

[4] = test system: HEPG2; assay: SRB antiproliferative assay HEPG2; conditions: Homo sapiens
Excerpt: as §1

[5] = test system: HTB174; assay: SRB antiproliferative assay HTB174; conditions: HTB174 (Lung), 5% FCS/5 day incubation; read-out: Test Compound IC50
Excerpt: as §1

[6] = test system: HT29; assay: SRB antiproliferative assay HT29; conditions: Homo sapiens
Excerpt: as §1

[7] = test system: MCF7; assay: SRB antiproliferative assay MCF7; conditions: Homo sapiens
Excerpt: as §1

[8] = test system: A549; assay: SRB antiproliferative assay A549; conditions: Homo sapiens
Excerpt: as §1

[9] = test system: U118MG; assay: SRB antiproliferative assay U118MG; conditions: Homo sapiens, U-118-MG; U118MG, 5% FCS/3 days; read-out: Test Compound IC50 Value in Cell Lines
Excerpt: as §1

[10] = Mus musculus, NIH3T3, NIH 3T3 mouse fibroblast cells
[11] = MMRU (Melanoma), 5% FCS/5 day incubation, read-out: Test Compound IC50
[12] = HEPG2 (Hepatocel), 5% FCS/5 day incubation, read-out: Test Compound IC50
[13] = HT-29, HT29 (Colon), 5% FCS/5 day incubation, read-out: Test Compound IC50
[14] = MCF7 (Breast), 5% FCS/5 day incubation, read-out: Test Compound IC50
[15] = A549, A549 (Lung), 5% FCS/5 day incubation, read-out: Test Compound IC50
[16] = MMRU, 5% FCS/2 days, read-out: Test Compound IC50 Value in Cell Lines
[17] = HT-29, HT29, 5% FCS/2 days, read-out: Test Compound IC50 Value in Cell Lines
[18] = A549, A549, 5% FCS/2 days, read-out: Test Compound IC50 Value in Cell Lines
[19] = MMRU, 5% FCS/3 days, read-out: Test Compound IC50 Value in Cell Lines
[20] = HEPG2, 5% FCS/3 days, read-out: Test Compound IC50 Value in Cell Lines
[21] = HT-29, HT29, 5% FCS/3 days, read-out: Test Compound IC50 Value in Cell Lines
[22] = MCF7, 5% FCS/3 days, read-out: Test Compound IC50 Value in Cell Lines
[23] = A549, A549, 5% FCS/3 days, read-out: Test Compound IC50 Value in Cell Lines

T1 sequence (O15554 whole entry): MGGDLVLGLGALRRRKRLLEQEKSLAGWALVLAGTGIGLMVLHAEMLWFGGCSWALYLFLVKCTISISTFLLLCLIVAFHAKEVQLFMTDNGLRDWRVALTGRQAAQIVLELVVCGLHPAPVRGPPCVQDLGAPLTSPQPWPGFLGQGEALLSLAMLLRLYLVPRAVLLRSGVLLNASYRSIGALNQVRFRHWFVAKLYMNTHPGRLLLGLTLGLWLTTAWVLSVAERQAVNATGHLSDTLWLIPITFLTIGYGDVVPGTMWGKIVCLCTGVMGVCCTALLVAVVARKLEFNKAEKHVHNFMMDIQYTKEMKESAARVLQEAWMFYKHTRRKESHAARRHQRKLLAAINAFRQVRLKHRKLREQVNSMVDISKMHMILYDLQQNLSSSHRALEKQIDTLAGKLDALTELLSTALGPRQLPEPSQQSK

Structure (SMILES) | IC50 [1] | inhibition at 10 µM ([1]; 10 μM compound) | IC50 [2, 10] | IC50 [3, 11] | IC50 [4, 12] | IC50 [5] | IC50 [6, 13] | IC50 [7, 14] | IC50 [8, 15] | further results
COc1cccc2c1C(c1ccccc1Cl)c1cc(Cl)ccc1N(C(=O)c1ccc(Cl)cc1)C2 (centres unmarked) [Compound 24] | > 10 µM | 32 to 55% | – | – | – | – | – | – | – | –
O=C(c1ccc2ccccc2c1)N1Cc2ccccc2C(c2ccccc2)c2ccccc21 (centres unmarked) [Compound 25] | > 10 µM | 8.5% | – | – | – | – | – | – | – | –
COc1ccc2c(c1)CNc1ccc(Cl)cc1C2c1ccccc1Cl (centres unmarked) [Compound 19] | > 10 µM | 52% | 1.6 µM | – | – | – | – | – | – | –
O=C(c1ccccc1)N1Cc2ccccc2C(c2ccccc2)c2ccccc21 (centres unmarked) [Compound 16] | > 10 µM | 0.45% | 1.7 µM | 2.7 µM | 3.4 µM | 2.6 µM | 2.6 µM | 4.2 µM | > 5 µM | –
Cc1ccc(C(=O)N2Cc3ccccc3C(c3ccccc3)c3ccccc32)cc1 (centres unmarked) [Compound 22] | > 10 µM | 14.9% | 3.6 µM | 0.9 µM | 1.4 µM | 1.4 µM | 0.7 µM | 1.8 µM | 1.9 µM | –
COc1cccc(C(=O)N2Cc3ccccc3C(c3ccccc3)c3ccccc32)c1 (centres unmarked) [Compound 17] | > 10 µM | 20.6% | 1.6 µM | 2.5 µM | 2.6 µM | 3.6 µM | 1.7 µM | 4.5 µM | > 5 µM | –
Clc1ccccc1C1c2ccccc2CNc2ccccc21 (centres unmarked) [Compound 3] | 0.886 µM | 97.4% | 2.4 µM | – | – | – | – | – | – | –
CN1Cc2ccccc2C(c2ccccc2Cl)c2ccccc21 (centres unmarked) [Compound 29] | – | – | – | – | – | – | – | – | – | IC50 [3, 16]: > 10 µM; Gardos Channel Assay Inhibition ([1]; 10 μM compound, 10 µM): 95.1%; IC50 [6, 17]: > 10 µM; IC50 [8, 18]: > 10 µM; Mitogenic Assay Inhibition ([2]; 10 µM compound, NIH 3T3 mouse fibroblast cells): 99.0%; IC50 ([2]; NIH 3T3 mouse fibroblast cells): 0.8 µM
O=C(c1ccc(Cl)cc1)N1Cc2ccccc2C(c2ccccc2)c2ccccc21 (centres unmarked) [Compound 13] | – | 0% | 1.7 µM | 1.5 µM | 1.8 µM | 1.4 µM | 1.5 µM | 2.7 µM | 3.1 µM | –
O=C(Nc1ccccc1)N1Cc2ccccc2C(c2ccccc2Cl)c2ccccc21 (centres unmarked) [Compound 32] | – | 0% | 1.1 µM | – | – | – | – | – | – | IC50 [3, 19]: 4.9 µM; IC50 [4, 20]: 6.2 µM; IC50 [6, 21]: 6.3 µM; IC50 [7, 22]: 5.4 µM; IC50 [9]: 6.8 µM; IC50 [8, 23]: 6.9 µM
c1ccc(CN2Cc3ccccc3C(c3ccccc3)c3ccccc32)cc1 (centres unmarked) [Compound 5] | > 10 µM | 14.4% | – | – | – | – | – | – | – | IC50 [3, 16]: > 10 µM; IC50 [6, 17]: 1 µM; IC50 [8, 18]: 1.4 µM
COc1ccc(C(=O)N2Cc3ccccc3C(c3ccccc3)c3ccccc32)cc1 (centres unmarked) [Compound 21] | > 10 µM | 2.1% | 2.7 µM | 1.5 µM | 1.9 µM | 1.9 µM | 1.8 µM | 3.5 µM | 4.2 µM | –
COc1ccc2c(c1)CN(C(=O)c1ccc(Cl)cc1)c1ccc(Cl)cc1C2c1ccccc1Cl (centres unmarked) [Compound 23] | > 10 µM | 18.2% | – | 2.2 µM | 2.3 µM | 1.8 µM | 2.1 µM | 3.1 µM | 3.4 µM | –
COC(=O)N1Cc2ccccc2C(c2ccccc2)c2ccccc21 (centres unmarked) [Compound 6] | 0.236 µM | 97.5% | – | – | – | – | – | – | – | IC50 [3, 16]: 10 µM; IC50 [6, 17]: > 10 µM; IC50 [8, 18]: > 10 µM
CN1Cc2ccccc2C(c2ccccc2)c2cc(Br)ccc21 (centres unmarked) [Compound 7] | > 10 µM | 35.8% | 1.6 µM | – | – | – | – | – | – | IC50 [3, 16]: > 10 µM; IC50 [6, 17]: > 10 µM; IC50 [8, 18]: > 10 µM
COc1cccc2c1C(c1ccccc1Cl)c1cc(Cl)ccc1NC2 (centres unmarked) [Compound 18] | 0.502 to 0.692 µM | 81.5% | 2.6 µM | – | – | – | – | – | – | –
O=C(O)C(=O)N1Cc2ccccc2C(c2ccccc2)c2ccccc21 (centres unmarked) [Compound 11] | > 10 µM | 9.5% | – | – | – | – | – | – | – | –
Nc1ccc(C(=O)N2Cc3ccccc3C(c3ccccc3Cl)c3ccccc32)cc1 (centres unmarked) [Compound 34] | > 10 µM | 12% | 4 µM | 1.2 µM | 1.5 µM | 0.9 µM | 1.6 µM | 2 µM | > 5 µM | IC50 [3, 16]: > 10 µM; IC50 [6, 17]: 6.8 µM; IC50 [8, 18]: > 10 µM
O=C(Nc1ccc([N+](=O)[O-])cc1)N1Cc2ccccc2C(c2ccccc2Cl)c2ccccc21 (centres unmarked) [Compound 35] | 0.071 to 0.099 µM | 98.3% | – | 3.1 µM | 4.5 µM | 4 µM | 4.8 µM | 2.4 µM | > 5 µM | IC50 [3, 16]: > 10 µM; IC50 [6, 17]: 10 µM; IC50 [8, 18]: > 10 µM
CN1Cc2ccccc2C(c2ccccc2Cl)c2ccccc21 (centres unmarked) [Compound 4] | 0.384 µM | 98.1% | 1.5 µM | – | – | – | – | – | – | IC50 ([3]; MMRU, 2% FCS/3 days, read-out: Test Compound IC50 Value in Cell Lines): 4.6 µM; IC50 ([6]; HT-29, HT29, 2% FCS/3 days, read-out: Test Compound IC50 Value in Cell Lines): 9.7 µM; IC50 ([7]; MCF7, 2% FCS/3 days, read-out: Test Compound IC50 Value in Cell Lines): 1.7 µM; IC50 ([8]; A549, A549, 2% FCS/3 days, read-out: Test Compound IC50 Value in Cell Lines): 11.4 µM
CCOC(=O)C(=O)N1Cc2ccccc2C(c2ccccc2)c2ccccc21 (centres unmarked) [Compound 10] | 1.53 to 1.94 µM | 63% | – | – | – | – | – | – | – | –
c1ccc(C2c3ccccc3CNc3ccccc32)cc1 (centres unmarked) [Compound 1] | 0.775 µM | 75.2% | – | – | – | – | – | – | – | –
Clc1ccccc1C1c2ccccc2CN(Cc2ccccc2)c2ccccc21 (centres unmarked) [Compound 8] | – | 0% | 2.2 µM | – | – | – | – | – | – | –
Clc1ccc2c(c1)C(c1ccccc1)c1cc3ccccc3cc1CN2 (centres unmarked) [Compound 15] | > 10 µM | 9.5% | – | – | – | – | – | – | – | –
CNc1ccc(C(=O)N2Cc3ccccc3C(c3ccccc3Cl)c3ccccc32)cc1 (centres unmarked) [Compound 33] | > 10 µM | 67.5% | 2.4 µM | 1.3 µM | 1.4 µM | 1.4 µM | 1.2 µM | 2.1 µM | 3.1 µM | IC50 [3, 19]: 4.9 µM; IC50 [4, 20]: 6.2 µM; IC50 [6, 21]: 6.3 µM; IC50 [7, 22]: 5.4 µM; IC50 [9]: 6.8 µM; IC50 [8, 23]: 6.9 µM
CN1Cc2ccccc2C(c2ccccc2)c2ccccc21 (centres unmarked) [Compound 2] | 1.3 µM | 99% | 5.2 µM | – | – | – | – | – | – | –
COc1ccc2c(c1)CNc1ccccc1C2(c1ccccc1)c1ccc(F)cc1 (centres unmarked) [Compound 12] | > 10 µM | 54.8% | – | – | – | – | – | – | – | –
